In patent US12201610B2, “Compositions comprising aticaprant” (Janssen Pharmaceuticals, Inc., priority 2022, dated 2025):
Like-named read-outs stand apart in the source and are kept apart here.

Assay: Phase 1 PK Part 1: relative bioavailability, dose proportionality, food effect of unmilled API tablet
Format: in vivo, human
Details: for Tmax: median
Procedure: This is a Phase 1, open-label, single dose, multicenter, 4-part study in healthy adult participants.
Potential participants will be screened from Day −28 to Day −2 to determine participants' eligibility for study participation. For Part 1, qualified participants will be admitted on Day −1 of each treatment period and will remain in-house for the total duration of the treatment (Day −1 until Day 5, with single-dose treatment on Day 1 and 96 hours of PK), whereas for Part 2, PK sampling will be done up to 120 hours (Day 6). Each dosed participant will have a safety follow-up on Day 10 to Day 14 after last dose of the study intervention.
The Part 1 of the study involves determination of relative bioavailability for tablet (Formulation Concept 1, i.e., unmilled aticaprant formulation, see Table 10) and capsule formulations (see Example 6, study design, for description of capsule formulation) and dose proportionality and food effect for tablet formulation (Formulation Concept 1) in healthy adult participants (FIG. 25). Part 1 will consist of Subpart 1A and Subpart 1B consisting of a total of 4 periods. […] Participants will be assigned to 1 of 6 treatment sequences (Table 51) and will be administered the 3 treatments in a 3-way crossover. The same 24 participants who complete Subpart 1A will be enrolled in Subpart 1B. Subpart 1B consists of a fourth period to evaluate the food effect of a single dose of 10 mg aticaprant administered as 1×10 mg oral tablet (Formulation Concept 1) under fed conditions (Treatment D; Table 50 and Table 52). A preliminary PK analysis will be conducted at the end of the food effect part (Subpart 1B) for all the periods from Part 1 and will include the food effect data.
Secondary Objectives: • To assess the safety and tolerability of oral doses of aticaprant in healthy adult participants. Part 2
For each individual participant, there will be a washout period of at least 7 days for Part 1 and at least 8 days for Part 2 between subsequent intakes of the study intervention. Day 1 of a treatment period (day of study intervention intake) is the first day of the washout period (also in between the study parts, if applicable).
Participants will be fasting in Part 1A and Part 2A. Participants will have been fed in Parts 1B and 2B. For a fasted condition, participants will fast (nothing to cat or drink except noncarbonated water) overnight for at least 10 hours before and until 4 hours after study intervention administration during each fasted treatment period. Approximately, 4 hours post-dose and after the 4-hour PK sampling, a standard lunch will be served at the study-site. Intake of water is allowed until 2 hours before the intake of the study intervention. Thereafter, water intake is only allowed for study intervention intake and for breakfast, if applicable. Drinking of water is allowed ad libitum from approximately 2 hours after dosing. For a fed condition, participants will consume, after an overnight fast (at least 10 hours), a standardized high-fat breakfast within a 20-minute period. […] Study intervention will be administered approximately 30 minutes after the start of the breakfast.
In Parts 1 and 2, plasma concentrations will be determined for aticaprant. Blood samples for determination of plasma concentrations of aticaprant will be collected predose and at the postdose time points starting on Day 1 as indicated in the Tables 57-58.
The following plasma PK parameters of aticaprant will be determined. A noncompartmental model with extravascular input will be used for the pharmacokinetic analysis.
Based on the individual concentration-time data, using the actual sampling times, the following PK parameters will be derived for aticaprant: […]

[1] = Dose proportionality: C (Test, 5 mg tablet normalized to 10 mg) vs B (Reference, 10 mg tablet), fasting
[2] = Food effect: Treatment D (high-fat breakfast, Test)/Treatment B (fasting, Reference), 10 mg Formulation Concept 1
[3] = Relative BA: Treatment B (10 mg tablet, Test)/Treatment A (2 × 5 mg capsule, Reference), fasting
[4] = Treatment A: 2 × 5 mg oral capsule, fasting, mean
[5] = Treatment B: 1 × 10 mg Formulation Concept 1 (unmilled API tablet), fasting, mean
[6] = Treatment C (1 × 5 mg Formulation Concept 1, fasting), 5 mg dose normalized to 10 mg, mean (SD)
[7] = Treatment C: 1 × 5 mg Formulation Concept 1 (unmilled API tablet), fasting, mean
[8] = Treatment D: 1 × 10 mg Formulation Concept 1 (unmilled API tablet), after high-fat breakfast, mean
[9] = human, plasma, oral, 5 mg, Treatment C: 1 × 5 mg Formulation Concept 1 (unmilled API tablet), fasting, mean
[10] = human, plasma, oral, 10 mg, Treatment B: 1 × 10 mg Formulation Concept 1 (unmilled API tablet), fasting, mean
[11] = human, plasma, oral, 10 mg, Treatment D: 1 × 10 mg Formulation Concept 1 (unmilled API tablet), after high-fat breakfast, mean
[12] = human, plasma, po, 10 mg, Treatment A: 2 × 5 mg oral capsule, fasting, mean

With `Cc1cc(C)cc(C2CCCN2Cc2ccc(Oc3ccc(C(N)=O)cc3F)cc2)c1` (stereo not shown) [aticaprant, 3-fluoro-4-4-2-(3,5-dimethylphenyl)pyrrolidin-1-yl-methylphenoxybenzamide] the Geometric Mean Cmax (Dose proportionality, completers, Treatment B (Reference): 1 × 10 mg Formulation Concept 1, fasting) was 32.8 ng/mL, the “Ratio of Geometric Means, AUClast” value [1] was 103.20% and the “Ratio of Geometric Means, AUC∞” value [1] was 103.93%. The “Ratio of Geometric Means, Cmax” value [1] was 102.12%, the Geometric Mean Cmax (Food effect, completers, Treatment B (Reference): 1 × 10 mg Formulation Concept 1, fasting) was 32.6 ng/mL and the “Ratio of Geometric Means, AUClast” value [2] was 144.01%. For the same compound, the “Ratio of Geometric Means, AUC∞” value [2] was 143.84%, the “Ratio of Geometric Means, Cmax” value [2] was 112.49% and the Geometric Mean Cmax (Relative BA, completers, Treatment B (Test): 1 × 10 mg Formulation Concept 1, fasting) was 32.8 ng/mL. The “Ratio of Geometric Means, AUClast” value [3] was 93.31%, the “Ratio of Geometric Means, AUC∞” value [3] was 94.14% and the “Ratio of Geometric Means, Cmax” value [3] was 108.64%. For the same compound, the CL/F [4] was 34.5 L/h, the Λz [4] was 0.030 h⁻¹ and the CL/F [5] was 36.2 L/h. For the same compound, the Cmax [5] was 34.1 ng/mL, the Λz [5] was 0.029 h⁻¹ and the “AUClast, C Dose Normalized” value [6] was 286 (79.7) h * ng/mL. The “AUC∞, C Dose Normalized” value [6] was 309 (86.4) h * ng/mL, the “Cmax, C Dose Normalized” value [6] was 33.9 (8.97) ng/mL and the CL/F [7] was 35.8 L/h. For the same compound, the Λz [7] was 0.035 h⁻¹, the CL/F [8] was 25.0 L/h and the Λz [8] was 0.031 h⁻¹. The AUC(0-t) (human, plasma, oral, 5 mg, Dose proportionality, completers, Treatment C (Test): 1 × 5 mg Formulation Concept 1, fasting, 5 mg dose normalized to 10 mg, read-out: Geometric Mean AUClast) was 280 ng·h/mL, the AUC(0-inf) (human, plasma, oral, 5 mg, Dose proportionality, completers, Treatment C (Test): 1 × 5 mg Formulation Concept 1, fasting, 5 mg dose normalized to 10 mg, read-out: Geometric Mean AUC∞) was 299 ng·h/mL and the Vd/F [9] was 1150 L. For the same compound, the half-life [9] was 24.7 h, the AUC(0-t) (human, plasma, oral, 5 mg, Treatment C: 1 × 5 mg Formulation Concept 1 (unmilled API tablet), fasting, mean, read-out: AUClast) was 143 ng·h/mL and the AUC(0-inf) (human, plasma, oral, 5 mg, Treatment C: 1 × 5 mg Formulation Concept 1 (unmilled API tablet), fasting, mean, read-out: AUC∞) was 155 ng·h/mL. It also gave a Cmax (human, plasma, oral, 5 mg, Treatment C: 1 × 5 mg Formulation Concept 1 (unmilled API tablet), fasting, mean, read-out: Cmax) of 17 ng/mL, a Tmax (human, plasma, oral, 5 mg, Treatment C: 1 × 5 mg Formulation Concept 1 (unmilled API tablet), fasting) of 1.5 h and an AUC(0-t) (human, plasma, oral, 10 mg, Dose proportionality, completers, Treatment B (Reference): 1 × 10 mg Formulation Concept 1, fasting, read-out: Geometric Mean AUClast) of 271 ng·h/mL. For the same compound, the AUC(0-inf) (human, plasma, oral, 10 mg, Dose proportionality, completers, Treatment B (Reference): 1 × 10 mg Formulation Concept 1, fasting, read-out: Geometric Mean AUC∞) was 287 ng·h/mL, the AUC(0-t) (human, plasma, oral, 10 mg, Food effect, completers, Treatment B (Reference): 1 × 10 mg Formulation Concept 1, fasting, read-out: Geometric Mean AUClast) was 270 ng·h/mL and the AUC(0-inf) (human, plasma, oral, 10 mg, Food effect, completers, Treatment B (Reference): 1 × 10 mg Formulation Concept 1, fasting, read-out: Geometric Mean AUC∞) was 287 ng·h/mL. The AUC(0-t) (human, plasma, oral, 10 mg, Food effect, completers, Treatment D (Test): 1 × 10 mg Formulation Concept 1, after high-fat breakfast, read-out: Geometric Mean AUClast) was 388 ng·h/mL, the AUC(0-inf) (human, plasma, oral, 10 mg, Food effect, completers, Treatment D (Test): 1 × 10 mg Formulation Concept 1, after high-fat breakfast, read-out: Geometric Mean AUC∞) was 413 ng·h/mL and the Cmax (human, plasma, oral, 10 mg, Food effect, completers, Treatment D (Test): 1 × 10 mg Formulation Concept 1, after high-fat breakfast, read-out: Geometric Mean Cmax) was 36.6 ng/mL. The AUC(0-t) (human, plasma, oral, 10 mg, Relative BA, completers, Treatment B (Test): 1 × 10 mg Formulation Concept 1, fasting, read-out: Geometric Mean AUClast) was 271 ng·h/mL, the AUC(0-inf) (human, plasma, oral, 10 mg, Relative BA, completers, Treatment B (Test): 1 × 10 mg Formulation Concept 1, fasting, read-out: Geometric Mean AUC∞) was 287 ng·h/mL and the Vd/F [10] was 1340 L. It also gave a half-life [10] of 26.6 h, an AUC(0-t) (human, plasma, oral, 10 mg, Treatment B: 1 × 10 mg Formulation Concept 1 (unmilled API tablet), fasting, mean, read-out: AUClast) of 283 ng·h/mL and an AUC(0-inf) (human, plasma, oral, 10 mg, Treatment B: 1 × 10 mg Formulation Concept 1 (unmilled API tablet), fasting, mean, read-out: AUC∞) of 301 ng·h/mL. For the same compound, the Tmax (human, plasma, oral, 10 mg, Treatment B: 1 × 10 mg Formulation Concept 1 (unmilled API tablet), fasting) was 1.5 h, the Vd/F [11] was 835 L and the half-life [11] was 24.5 h. It also gave an AUC(0-t) (human, plasma, oral, 10 mg, Treatment D: 1 × 10 mg Formulation Concept 1 (unmilled API tablet), after high-fat breakfast, mean, read-out: AUClast) of 398 ng·h/mL, an AUC(0-inf) (human, plasma, oral, 10 mg, Treatment D: 1 × 10 mg Formulation Concept 1 (unmilled API tablet), after high-fat breakfast, mean, read-out: AUC∞) of 425 ng·h/mL and a Cmax (human, plasma, oral, 10 mg, Treatment D: 1 × 10 mg Formulation Concept 1 (unmilled API tablet), after high-fat breakfast, mean, read-out: Cmax) of 37.7 ng/mL. For the same compound, the Tmax (human, plasma, oral, 10 mg, Treatment D: 1 × 10 mg Formulation Concept 1 (unmilled API tablet), after high-fat breakfast) was 2.75 h, the AUC(0-t) (human, plasma, po, 10 mg, Relative BA, completers, Treatment A (Reference): 2 × 5 mg oral capsule, fasting, read-out: Geometric Mean AUClast) was 291 ng·h/mL and the AUC(0-inf) (human, plasma, po, 10 mg, Relative BA, completers, Treatment A (Reference): 2 × 5 mg oral capsule, fasting, read-out: Geometric Mean AUC∞) was 305 ng·h/mL. The Cmax (human, plasma, po, 10 mg, Relative BA, completers, Treatment A (Reference): 2 × 5 mg oral capsule, fasting, read-out: Geometric Mean Cmax) was 30.2 ng/mL, the Vd/F [12] was 1250 L and the half-life [12] was 26.3 h. It also gave an AUC(0-t) (human, plasma, po, 10 mg, Treatment A: 2 × 5 mg oral capsule, fasting, mean, read-out: AUClast) of 304 ng·h/mL, an AUC(0-inf) (human, plasma, po, 10 mg, Treatment A: 2 × 5 mg oral capsule, fasting, mean, read-out: AUC∞) of 315 ng·h/mL and a Cmax (human, plasma, po, 10 mg, Treatment A: 2 × 5 mg oral capsule, fasting, mean, read-out: Cmax) of 31.2 ng/mL. For the same compound, the Tmax (human, plasma, po, 10 mg, Treatment A: 2 × 5 mg oral capsule, fasting) was 1.5 h.
